Measured values as given in US4257941A, “Polycyclic nitrogen-containing compounds” (BASF Aktiengesellschaft, priority 1976, dated 1981).
Read-outs that look alike come from different tables or passages of the source.

Assays:
Type in all cases: in vivo
[1] = system: Digitaria sanguinalis; test: Herbicidal action (Example 25); conditions: preemergence
Outline: (§1)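 Plants of each species grew in sandy loam in the greenhouse at 12–25 or 18–35 °C. Compounds in water were sprayed either preemergence right after sowing or postemergence at 2–8 cm plant height. Damage was scored visually after 2–6 weeks on a 0–100 scale, where 100 means not germinated or fully destroyed.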

[2] = system: Cynodon dactylon; test: Herbicidal action (Example 25); conditions: preemergence
Outline: as §1

[3] = system: Ipomoea spp.; test: Herbicidal action (Example 25); conditions: preemergence
Outline: as §1

[4] = system: Euphorbia spp.; test: Herbicidal action (Example 25); conditions: preemergence
Outline: as §1

[5] = system: Alopecurus myosuroides; test: Herbicidal action (Example 25); conditions: Alopecurus myosuroides, pre-emergence, preemergence, read-out: percentage damage; for pest or weed control at 2000 g/ha: 2.0 kg/ha; for pest or weed control at 4000 g/ha: 4.0 kg/ha
Outline: as §1

[6] = system: Cyperus esculentus; test: Herbicidal action (Example 25); conditions: preemergence
Outline: as §1

[7] = system: Lolium multifl.; test: Growth height of Gramineae (Example 11, Table B); conditions: 3.0 kg/ha, 0 = no inhibition, 100 = no growth; for inhibition at 3000 g/ha: Lolium, read-out: growth inhibition compared with untreated control
Text: (§2) The vessels used for the experiments were plastic pots having a volume of 1,130 cm^3 (Table A) or paraffined paper cups having a volume of 170 cm^3 (Table B). The pots and cups were filled with a sandy loam. The seeds of the test plants-separated by species-were sown shallow. Preemergence treatment (soil treatment) was effected immediately after sowing and before germination of the seeds. Seeds lying on the surface came into contact with the active ingredients. Postemergence treatment (leaf treatment) took place at an average growth height of the plants (depending on the rate of growth) of from 6 to 10 cm. The substances were suspended, emulsified or dissolved in water as diluent and applied by means of fine nozzles. The vessels were kept in the greenhouse in a temperature range of 12° C. to 25° C., and were regularly sprinkler irrigated for the duration of the experiment. The observation period was 6 to 8 weeks.

[8] = system: Hordeum vulgare; test: Growth height of Gramineae (Example 11, Table B); conditions: 3.0 kg/ha, 0 = no inhibition, 100 = no growth; for inhibition at 3000 g/ha: Hordeum vulgare, read-out: growth inhibition compared with untreated control
Text: as §2

[9] = system: Avena sativa; test: Growth height of Gramineae (Example 11, Table B); conditions: 3.0 kg/ha, 0 = no inhibition, 100 = no growth; for inhibition at 3000 g/ha: Avena sativa, read-out: growth inhibition compared with untreated control
Text: as §2

[10] = system: Stellaria media; test: Herbicidal action (Example 25); conditions: preemergence, 2.0 kg/ha
Outline: as §1

[11] = system: Setaria faberii; test: Herbicidal action (Example 25); conditions: preemergence
Outline: as §1

[12] = system: Sinapis alba; test: Herbicidal action (Example 25); conditions: pre-emergence, read-out: percentage damage
Outline: as §1

[13] = system: Matricaria chamomilla; test: Herbicidal action (Example 25); conditions: preemergence, 2.0 kg/ha
Outline: as §1

[14] = system: Sorghum halepense; test: Herbicidal action (Example 25); conditions: preemergence
Outline: as §1

[15] = system: Poa annua; test: Herbicidal action (Example 25); conditions: Poa annua, pre-emergence, read-out: percentage damage
Outline: as §1

[16] = system: Panicum virgatum; test: Herbicidal action (Example 25); conditions: preemergence, 2.0 kg/ha
Outline: as §1

Cc1ccc(N2N=NC3C4CC(C5N=NC45)C32)cc1 (stereo not shown) [drawing 413]
percentage damage ([1]; 2.0 kg/ha): 100 percentage damage
percentage damage ([1]; 4.0 kg/ha): 100 percentage damage
percentage damage ([2]; 2.0 kg/ha): 83 percentage damage
percentage damage ([2]; 4.0 kg/ha): 100 percentage damage
percentage damage ([3]; 2.0 kg/ha): 78 percentage damage
percentage damage ([3]; 4.0 kg/ha): 75 percentage damage
percentage damage ([4]; 2.0 kg/ha): 90 percentage damage
percentage damage ([4]; 4.0 kg/ha): 100 percentage damage
pest or weed control at 2000 g/ha [5]: 40%
pest or weed control at 4000 g/ha [5]: 40%
percentage damage ([6]; 2.0 kg/ha): 0 percentage damage
percentage damage ([6]; 4.0 kg/ha): 0 percentage damage

Clc1ccc(N2N=NC3C4CC(C5N=NC45)C32)cc1Cl (stereo not shown)
growth inhibition compared with untreated control ([7]; leaf treatment): 25%
growth inhibition compared with untreated control ([7]; soil treatment): 30%
growth inhibition compared with untreated control ([8]; leaf treatment): 30%
growth inhibition compared with untreated control ([8]; soil treatment): 40%
growth inhibition compared with untreated control ([9]; leaf treatment): 40%
growth inhibition compared with untreated control ([9]; soil treatment): 30%

O=S(=O)(c1ccccc1)N1C2C3CC(C4N=NC34)C21 (stereo not shown) [drawing 414]
percentage damage ([1]; 2.0 kg/ha): 68 percentage damage
percentage damage ([1]; 4.0 kg/ha): 90 percentage damage
percentage damage ([2]; 2.0 kg/ha): 90 percentage damage
percentage damage ([2]; 4.0 kg/ha): 100 percentage damage
percentage damage ([3]; 2.0 kg/ha): 78 percentage damage
percentage damage ([4]; 2.0 kg/ha): 65 percentage damage
percentage damage ([4]; 4.0 kg/ha): 90 percentage damage
pest or weed control at 2000 g/ha [5]: 80%
pest or weed control at 4000 g/ha [5]: 80%
percentage damage ([6]; 2.0 kg/ha): 0 percentage damage
percentage damage ([6]; 4.0 kg/ha): 0 percentage damage

c1ccc(N2N=NC3C4CC(C5N=NC45)C32)cc1 (stereo not shown) [drawing 410]
percentage damage ([1]; 2.0 kg/ha): 100 percentage damage
percentage damage ([2]; 2.0 kg/ha): 70 percentage damage
percentage damage ([2]; 4.0 kg/ha): 90 percentage damage
percentage damage ([3]; 2.0 kg/ha): 50 percentage damage
percentage damage ([3]; 4.0 kg/ha): 60 percentage damage
pest or weed control at 4000 g/ha [5]: 85%
percentage damage ([6]; 2.0 kg/ha): 27 percentage damage
percentage damage ([6]; 4.0 kg/ha): 55 percentage damage

c1ccc(CN2N=NC3C4CC(C5N=NC45)C32)cc1 (stereo not shown) [drawing 412]
percentage damage ([2]; 2.0 kg/ha): 80 percentage damage
percentage damage ([2]; 4.0 kg/ha): 100 percentage damage
percentage damage ([3]; 2.0 kg/ha): 0 percentage damage
percentage damage ([3]; 4.0 kg/ha): 10 percentage damage
pest or weed control at 2000 g/ha [5]: 55%
pest or weed control at 4000 g/ha [5]: 70%
percentage damage ([6]; 2.0 kg/ha): 55 percentage damage
percentage damage ([6]; 4.0 kg/ha): 55 percentage damage

c1ccc(N2N=NC3C4CC(C5N=NC45)C32)cc1 (stereo not shown) [drawing 415]
percentage damage [10]: 100 percentage damage
percentage damage ([11]; 2.0 kg/ha): 97 percentage damage
percentage damage ([11]; 4.0 kg/ha): 100 percentage damage
pest or weed control at 2000 g/ha ([12]; preemergence, 2.0 kg/ha): 99%
pest or weed control at 4000 g/ha ([12]; preemergence, 4.0 kg/ha): 100%
percentage damage [13]: 95 percentage damage
percentage damage ([14]; 2.0 kg/ha): 75 percentage damage
percentage damage ([14]; 4.0 kg/ha): 100 percentage damage
pest or weed control at 2000 g/ha ([15]; preemergence, 2.0 kg/ha): 95%
percentage damage [16]: 100 percentage damage

c1ccc(N2C3C4CC(C5N=NC45)C32)cc1 (stereo not shown) [drawing 416]
percentage damage [10]: 100 percentage damage
percentage damage ([11]; 2.0 kg/ha): 59 percentage damage
percentage damage ([11]; 4.0 kg/ha): 65 percentage damage
pest or weed control at 2000 g/ha [12]: 74%
percentage damage [13]: 95 percentage damage
percentage damage ([14]; 2.0 kg/ha): 74 percentage damage
percentage damage ([14]; 4.0 kg/ha): 78 percentage damage
pest or weed control at 2000 g/ha [15]: 57%
percentage damage [16]: 100 percentage damage

C[N+](C)(C)CCCl [drawing 370]
inhibition at 3000 g/ha ([7]; leaf treatment): 20%
inhibition at 3000 g/ha ([7]; soil treatment): 5%
inhibition at 3000 g/ha ([8]; leaf treatment): 10%
inhibition at 3000 g/ha ([8]; soil treatment): 10%
inhibition at 3000 g/ha ([9]; leaf treatment): 45%
inhibition at 3000 g/ha ([9]; soil treatment): 25%
